Assay results reported in article PMC9656319, “Pharmacokinetics and Tissue Distribution of Coumarins from Tagetes lucida in an LPS-Induced Neuroinflammation Model” (Plants, 2022).

How the values were obtained:
[1] = Tissue distribution in the brain after oral hexanic extract of Tagetes lucida, healthy and LPS-administrated mice; type: in vivo, ICR mice; conditions: after the initial absorption process
Description: After blood sampling, the mice were sacrificed in a chamber with chloroform by an overdose of anesthesia. The brain, kidney, and spleen were quickly removed and rinsed with saline solution, fresh weight was recorded, and immediately placed on ice. Subsequently, the organs were freeze-dried, grounded, and weighted. The lyophilized organs were individually suspended in methanol in a 1:1 volume: dry weight ratio for 24 h, then sonicated for 5 min and centrifuged at 14,000 rpm for 7 min. The supernatants were recovered in clean tubes and stored at −70 °C until their use.
(§1) One hundred microliters of plasma and organs samples, spiked with calibration and QC concentration or samples from the pharmacokinetic study, were mixed with 300 µL of acetonitrile containing the IS at 10 µg/mL for protein precipitation, and vortexed for 3 min. Then, 200 µL of dichloromethane were added, for liquid–liquid extraction of the bioactive compounds, and vortexed for 5 min. The mixture was centrifuged at 14,000 rpm for 10 min, and the extracted organic layers were placed in new tubes, until completely dry at room temperature. For quantitative analysis, samples were resuspended in 100 µL of methanol, transferred to sampling vials, and injected into the chromatographic system, described below.
A pharmacokinetic study was carried out in sixty mice, divided in six subgroups, according to sample collection times. An acute inflammation process by the intraperitoneal (i.p.) administration of LPS at 2 mg/kg was induced in half of the mice per group, while the other half received an i.p. injection of saline solution. Ten min after the damage was induced, the mice were administered with an oral dose of 10 mg/kg of the bioactive fraction dissolved in a 1% Tween-20 aqueous solution. […]
To evaluate the distribution in the tissues, bioactive coumarins were quantified in the lyophilized organs, and concentrations were adjusted to the volumes of liquid obtained by the difference between the dry and fresh weights of each tissue to simulate a distribution approximation of the compounds by tissue system.

[2] = Pharmacokinetic study in plasma after oral hexanic extract of Tagetes lucida, healthy and LPS-damaged mice; type: in vivo, ICR mice; conditions: for Cmax / AUC(0-inf) / MRT / Tmax / half-life / AUC(0-t): ICR, mouse, po, 10 mg/kg; for Cmax / AUC(0-inf) / MRT / Tmax / half-life / AUC(0-t) / Cl/F: plasma, 10 mg/kg oral hexanic extract, mean ± SEM (n = 5); for Cmax: non-compartmental; for AUC(0-t): to 6 h
Description: The optimized HPLC-validated method for the quantification of coumarins present in the hexane extract of T. lucida was used to evaluate the concentration profiles over time in the plasma, brain, kidney, and spleen biological matrices after an oral administration of 10 mg/kg of the extract.
Blood samples were obtained from the retro-orbital sinus of mice and collected in heparinized tubes. Plasma was separated by centrifugation at 3500 rpm for 5 min and stored in new Eppendorf tubes at −70 °C, until further processing.
as §1
A pharmacokinetic study was carried out in sixty mice, divided in six subgroups, according to sample collection times. An acute inflammation process by the intraperitoneal (i.p.) administration of LPS at 2 mg/kg was induced in half of the mice per group, while the other half received an i.p. injection of saline solution. Ten min after the damage was induced, the mice were administered with an oral dose of 10 mg/kg of the bioactive fraction dissolved in a 1% Tween-20 aqueous solution. Blood and tissue samples were obtained and processed at 0, 0.25, 0.75, 1.5, 2, 4, and 6 h post-dosing, as indicated in the “Samples collection” and “Plasma and tissue samples processing” sections.
Pharmacokinetic parameters of PE, SC, DF, HR, and PU in plasma were calculated by PKSolver software.

[3] = Stability of the analytes in spiked plasma, brain, kidney and spleen matrices (autosampler, long-term, freeze-thaw); type: physicochemical, mice; conditions: for Stability Autosampler RE (%): processed samples in autosampler vials 24 h room temperature; for Stability Freeze-Thaw RE (%): three cycles (−4 °C to 25 °C); for Stability Long-Term RE (%): −70 °C for 30 days
Description: The stability of the compounds obtained from each enriched matrices at the QC concentrations was evaluated under different conditions that covered the processing, handling, and storage phases that could be developed throughout the study.
Individual stock solutions of PE, SC, DF, HR, PU, and rutin (IS) were prepared separately in methanol (1 mg/mL) and stored at −4 °C until use. From the stocks, a working solution in methanol was prepared at a concentration of 200 µg/mL of each coumarin. Blank plasma or organs supernatant samples (80 µL) were spiked with 20 µL of serial dilutions of working solution to obtain calibration curves ranging between 0.156, 0.312, 0.625, 1.25, 2.5, 5, 10, 20, and 40 µg/mL of each coumarin. Quality control (QC) samples were prepared at three levels of 0.3 (low), 3 (medium), and 30 (high) µg/mL for each coumarin.
The stability of the analytes in plasma, brain, kidneys, and spleen was evaluated by the analyzed concentrations of QC subjected to three different conditions. Short-term stability was determined by analysis of samples processed in the autosampler vials at 24 h at room temperature. Long-term stability was tested on samples stored at −70 °C for 30 days. Freeze-thaw stability was determined after three cycles (−4 °C to 25 °C) on three consecutive days.

Question: With `CC(C)=CCOc1ccc2ccc(=O)oc2c1` [PU, 7-O-prenylumbelliferone] as the molecule, how does the “time at which the highest concentration in the brain tissue is reached” value [1] read?
Answer: 15 min

Question: What about the Cmax ([2]; LPS-damaged ICR mice (LPS 2 mg/kg i.p.)) of the same molecule?
Answer: 690 ± 70 ng/mL

Question: What about the AUC(0-inf) ([2]; LPS-damaged ICR mice) of the same molecule?
Answer: 2240 ± 260 ng·h/mL

Question: What about the MRT ([2]; LPS-damaged ICR mice) of the same molecule?
Answer: 2.68 ± 0.14 h

Question: And the Tmax ([2]; LPS-damaged ICR mice)?
Answer: 1.05 ± 0.31 h

Question: And the half-life ([2]; LPS-damaged ICR mice)?
Answer: 0.95 ± 0.1 h

Question: And the AUC(0-t) ([2]; LPS-damaged ICR mice)?
Answer: 2220 ± 260 ng·h/mL

Question: What about the AUC(0-inf) ([2]; healthy ICR mice) of the same molecule?
Answer: 1520 ± 120 ng·h/mL

Question: And the MRT ([2]; healthy ICR mice)?
Answer: 2.15 ± 0.11 h

Question: What about the Tmax ([2]; healthy ICR mice) of the same molecule?
Answer: 1.55 ± 0.23 h

Question: And the half-life ([2]; healthy ICR mice)?
Answer: 0.92 ± 0.06 h

Question: What about the Cmax ([2]; healthy ICR mice) of the same molecule?
Answer: 560 ± 50 ng/mL

Question: And the AUC(0-t) ([2]; healthy ICR mice)?
Answer: 1490 ± 110 ng·h/mL

Question: What about the “time of concentration peak in plasma after administration of the extract” value ([2]; LPS-treated mice, Figure 3e) of the same molecule?
Answer: up to 4 h

Question: And the Cl/F ([2]; LPS-damaged ICR mice)?
Answer: 46.95 ± 5.03 (mg/kg)/(μg/mL)/h

Question: And the Cl/F ([2]; healthy ICR mice)?
Answer: 67.37 ± 5.33 (mg/kg)/(μg/mL)/h

Question: And the “Stability Autosampler RE (%)” value ([3]; brain, nominal 0.3 µg/mL)?
Answer: 2.13%

Question: What about the “Stability Freeze-Thaw RE (%)” value ([3]; brain, nominal 0.3 µg/mL) of the same molecule?
Answer: -6.54%

Question: What about the “Stability Long-Term RE (%)” value ([3]; brain, nominal 0.3 µg/mL) of the same molecule?
Answer: 3.45%

Question: What about the “Stability Autosampler RE (%)” value ([3]; brain, nominal 3.0 µg/mL) of the same molecule?
Answer: 1.80%

Question: And the “Stability Freeze-Thaw RE (%)” value ([3]; brain, nominal 3.0 µg/mL)?
Answer: -4.49%

Question: What about the “Stability Long-Term RE (%)” value ([3]; brain, nominal 3.0 µg/mL) of the same molecule?
Answer: -5.42%

Question: What about the “Stability Autosampler RE (%)” value ([3]; brain, nominal 30.0 µg/mL) of the same molecule?
Answer: 4.57%

Question: What about the “Stability Freeze-Thaw RE (%)” value ([3]; brain, nominal 30.0 µg/mL) of the same molecule?
Answer: -1.74%

Question: And the “Stability Long-Term RE (%)” value ([3]; brain, nominal 30.0 µg/mL)?
Answer: -4.61%

Question: And the “Stability Autosampler RE (%)” value ([3]; kidney, nominal 0.3 µg/mL)?
Answer: 7.10%

Question: What about the “Stability Freeze-Thaw RE (%)” value ([3]; kidney, nominal 0.3 µg/mL) of the same molecule?
Answer: 3.61%

Question: What about the “Stability Long-Term RE (%)” value ([3]; kidney, nominal 0.3 µg/mL) of the same molecule?
Answer: 5.54%

Question: What about the “Stability Autosampler RE (%)” value ([3]; kidney, nominal 3.0 µg/mL) of the same molecule?
Answer: 5.21%

Question: And the “Stability Freeze-Thaw RE (%)” value ([3]; kidney, nominal 3.0 µg/mL)?
Answer: 2.01%

Question: And the “Stability Long-Term RE (%)” value ([3]; kidney, nominal 3.0 µg/mL)?
Answer: 8.68%

Question: What about the “Stability Autosampler RE (%)” value ([3]; kidney, nominal 30.0 µg/mL) of the same molecule?
Answer: 1.66%

Question: And the “Stability Freeze-Thaw RE (%)” value ([3]; kidney, nominal 30.0 µg/mL)?
Answer: -1.02%

Question: And the “Stability Long-Term RE (%)” value ([3]; kidney, nominal 30.0 µg/mL)?
Answer: 6.46%

Question: And the “Stability Autosampler RE (%)” value ([3]; plasma, nominal 0.3 µg/mL)?
Answer: -6.02%

Question: What about the “Stability Freeze-Thaw RE (%)” value ([3]; plasma, nominal 0.3 µg/mL) of the same molecule?
Answer: -9.54%

Question: What about the “Stability Long-Term RE (%)” value ([3]; plasma, nominal 0.3 µg/mL) of the same molecule?
Answer: -8.22%

Question: What about the “Stability Autosampler RE (%)” value ([3]; plasma, nominal 3.0 µg/mL) of the same molecule?
Answer: -11.68%

Question: What about the “Stability Freeze-Thaw RE (%)” value ([3]; plasma, nominal 3.0 µg/mL) of the same molecule?
Answer: -9.78%

Question: What about the “Stability Long-Term RE (%)” value ([3]; plasma, nominal 3.0 µg/mL) of the same molecule?
Answer: -10.56%

Question: And the “Stability Autosampler RE (%)” value ([3]; plasma, nominal 30.0 µg/mL)?
Answer: -9.86%

Question: What about the “Stability Freeze-Thaw RE (%)” value ([3]; plasma, nominal 30.0 µg/mL) of the same molecule?
Answer: -5.10%

Question: What about the “Stability Long-Term RE (%)” value ([3]; plasma, nominal 30.0 µg/mL) of the same molecule?
Answer: -4.81%

Question: What about the “Stability Autosampler RE (%)” value ([3]; spleen, nominal 0.3 µg/mL) of the same molecule?
Answer: -0.09%

Question: And the “Stability Freeze-Thaw RE (%)” value ([3]; spleen, nominal 0.3 µg/mL)?
Answer: -8.53%

Question: And the “Stability Long-Term RE (%)” value ([3]; spleen, nominal 0.3 µg/mL)?
Answer: -6.92%

Question: And the “Stability Autosampler RE (%)” value ([3]; spleen, nominal 3.0 µg/mL)?
Answer: -4.98%

Question: What about the “Stability Freeze-Thaw RE (%)” value ([3]; spleen, nominal 3.0 µg/mL) of the same molecule?
Answer: 2.88%

Question: What about the “Stability Long-Term RE (%)” value ([3]; spleen, nominal 3.0 µg/mL) of the same molecule?
Answer: 7.56%

Question: What about the “Stability Autosampler RE (%)” value ([3]; spleen, nominal 30.0 µg/mL) of the same molecule?
Answer: -2.63%

Question: What about the “Stability Freeze-Thaw RE (%)” value ([3]; spleen, nominal 30.0 µg/mL) of the same molecule?
Answer: 2.27%

Question: What about the “Stability Long-Term RE (%)” value ([3]; spleen, nominal 30.0 µg/mL) of the same molecule?
Answer: 4.26%
